Drawing on patent US9951077B2, “Aminopyridazinone compounds as protein kinase inhibitors” (ETERNITY BIOSCIENCE INC., priority 2014, dated 2018), this text covers IC50 for 27 compounds.

Btk, sequence (Q06187 whole entry): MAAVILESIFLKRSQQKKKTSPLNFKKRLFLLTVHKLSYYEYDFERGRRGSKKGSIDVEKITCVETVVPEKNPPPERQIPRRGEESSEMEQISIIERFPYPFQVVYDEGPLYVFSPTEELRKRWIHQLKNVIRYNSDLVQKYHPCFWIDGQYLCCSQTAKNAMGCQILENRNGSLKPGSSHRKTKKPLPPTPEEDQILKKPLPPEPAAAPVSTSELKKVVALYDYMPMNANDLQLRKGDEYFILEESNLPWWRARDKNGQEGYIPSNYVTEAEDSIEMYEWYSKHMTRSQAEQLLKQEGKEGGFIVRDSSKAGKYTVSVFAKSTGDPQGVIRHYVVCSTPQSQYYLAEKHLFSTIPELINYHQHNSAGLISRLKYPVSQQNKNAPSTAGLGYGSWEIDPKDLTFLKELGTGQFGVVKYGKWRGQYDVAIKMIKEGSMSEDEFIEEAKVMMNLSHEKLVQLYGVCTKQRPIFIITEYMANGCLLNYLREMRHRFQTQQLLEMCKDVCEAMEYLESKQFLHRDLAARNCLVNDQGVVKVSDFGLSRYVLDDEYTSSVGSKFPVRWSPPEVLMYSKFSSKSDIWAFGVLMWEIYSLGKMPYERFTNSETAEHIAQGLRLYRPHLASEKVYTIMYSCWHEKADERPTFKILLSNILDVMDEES

For one assay, the system named is TMD-8 cells. Nature of the assay: Cell proliferation assay (CellTiter-Glo), TMD-8 cells. Format: cell-based. To be noted: 5-day treatment; read-out: TMD8 cells growth IC50. The protocol: TMD-8 and SU-DHL-1 cells were maintained at 37° C. in a humidified atmosphere with 5% CO2 in the recommended medium and serum concentrations. For cell proliferation assay, cells were seeded in 96-well pates at a density of 5,000 to 10,000 cells per well and cultured overnight at 37° C. in recommended medium supplemented with 5-10% FBS. On the next day, the test articles at various concentrations or vehicle control (0.5% DMSO) were added into cell culture. After 5-day treatment, the growth of cells was assayed by the CellTiter-Glo® Luminestceaent Cell Viability Assay (Promega). IC50 values were calculated using GraphPad Prism by plotting the logarithm of the concentration versus percent inhibition of cell growth as compared with the vehicle control.
Background: In ATP-based viability assays light output follows the ATP content of the culture.
One may read the IC50 as the point on the concentration scale where inhibition reaches its midpoint. “4-amino-3-(4-phenoxyphenyl)-1-(1- prop-2-enoyl-3-piperidyl)-6H- pyrazolo[3,4-d]pyridazin-7-one [Example 2]”: the half-inhibitory concentration (IC50) was ≤ 0.01 µM.
As to `CN(C/C=C/C(=O)N1CCC[C@@H](n2cc(-c3ccc(Oc4ccccc4)cc3)c3c(N)n[nH]c(=O)c32)C1)C1CCCCC1` [Example 32, 4-amino-1-[(3R)-1-[(E)-4-[cyclohexyl(methyl)amino]but-2-enoyl]-3-piperidyl]-3-(4-phenoxyphenyl)-6H-pyrrolo[2,3-d]pyridazin-7-one], the IC50 lay in the range of 0.01 to 1 µM.
Turning to `CN1CCN(C/C=C/C(=O)N2CCC[C@@H](n3cc(-c4ccc(Oc5ccccc5)cc4)c4c(N)n[nH]c(=O)c43)C2)CC1` [Example 36, 4-amino-1-[(3R)-1-[(E)-4-(4-methylpiperazin-1-yl)but-2-enoyl]-3-piperidyl]-3-(4-phenoxyphenyl)-6H-pyrrolo[2,3-d]pyridazin-7-one], the half-maximal inhibitory concentration (IC50) is 0.01 to 1 µM.

The assay is the same for the next values; noted with them: Homo sapiens, TMD8, 120 h; 5-day treatment; read-out: TMD8 cells growth IC50.
With `CN(C)C/C=C/C(=O)N1CCC(F)C(n2cc(-c3ccc(Oc4ccccc4)cc3)c3c(N)n[nH]c(=O)c32)C1` (centres unmarked) [Example 45, 4-amino-1-[1-[(E)-4-(dimethylamino)but-2-enoyl]-4-fluoro-3-piperidyl]-3-(4-phenoxyphenyl)-6H-pyrrolo[2,3-d]pyridazin-7-one], the IC50 was ≤ 0.01 µM.
The same measure, in the same setting: the figure for `CN(C)C/C=C/C(=O)NC1CCC(n2cc(-c3ccc(Oc4ccccc4)cc3)c3c(N)n[nH]c(=O)c32)CC1` (centres unmarked) [Example 46, (E)-N-[4-[4-amino-7-oxo-3-(4-phenoxyphenyl)-6H-pyrrolo[2,3-d]pyridazin-1-yl]cyclohexyl]-4-(dimethylamino)but-2-enamide] is 0.01 to 1 µM.

The target of a further assay is Btk (Homo sapiens (Human), UniProt Q06187). Nature of the assay: Btk kinase assay (ADP-Glo). As to conditions: ATP 1.2 μM, 60 minutes, room temperature; read-out: BTK enzyme IC50. Format: biochemical. The gist of the method:
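Recombinant human Btk (2 ng/μl) with poly GT peptide (0.3 μM), ATP (1.2 μM), MnCl2 (1.4 mM) and DTT (40 nM), 60 min at room temperature (22±1° C.). ADP formed was read by ADP-Glo luminescence after ATP depletion. IC50 from log concentration versus percent inhibition relative to DMSO vehicle.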
“4-amino-3-(4-phenoxyphenyl)-1-(1- prop-2-enoyl-3-piperidyl)-6H- pyrazolo[3,4-d]pyridazin-7-one [Example 2]”: the IC50 is ≤ 0.01 µM.
Regarding `CN(C/C=C/C(=O)N1CCC[C@@H](n2cc(-c3ccc(Oc4ccccc4)cc3)c3c(N)n[nH]c(=O)c32)C1)C1CCCCC1` [Example 32, 4-amino-1-[(3R)-1-[(E)-4-[cyclohexyl(methyl)amino]but-2-enoyl]-3-piperidyl]-3-(4-phenoxyphenyl)-6H-pyrrolo[2,3-d]pyridazin-7-one], the IC50 is 0.01 to 1 µM.
`CN1CCN(C/C=C/C(=O)N2CCC[C@@H](n3cc(-c4ccc(Oc5ccccc5)cc4)c4c(N)n[nH]c(=O)c43)C2)CC1` [Example 36, 4-amino-1-[(3R)-1-[(E)-4-(4-methylpiperazin-1-yl)but-2-enoyl]-3-piperidyl]-3-(4-phenoxyphenyl)-6H-pyrrolo[2,3-d]pyridazin-7-one]: the IC50 was ≤ 0.01 µM.
Consider `CN(C)C/C=C/C(=O)N1CCC(F)C(n2cc(-c3ccc(Oc4ccccc4)cc3)c3c(N)n[nH]c(=O)c32)C1` (centres unmarked) [Example 45, 4-amino-1-[1-[(E)-4-(dimethylamino)but-2-enoyl]-4-fluoro-3-piperidyl]-3-(4-phenoxyphenyl)-6H-pyrrolo[2,3-d]pyridazin-7-one], for which the IC50 was ≤ 0.01 µM.
Take `CN(C)C/C=C/C(=O)NC1CCC(n2cc(-c3ccc(Oc4ccccc4)cc3)c3c(N)n[nH]c(=O)c32)CC1` (centres unmarked) [Example 46, (E)-N-[4-[4-amino-7-oxo-3-(4-phenoxyphenyl)-6H-pyrrolo[2,3-d]pyridazin-1-yl]cyclohexyl]-4-(dimethylamino)but-2-enamide]: the IC50 lay in the range of 0.01 to 1 µM.
Turning to `CN(C)C/C=C/C(=O)Nc1cccc(-n2cc(-c3ccc(Oc4ccccc4F)cc3)c3c(N)n[nH]c(=O)c32)c1` [Example 92, (E)-N-[3-[4-amino-3-[4-(2-fluorophenoxy)phenyl]-7-oxo-6H-pyrrolo[2,3-d]pyridazin-1-yl]phenyl]-4-(dimethylamino)but-2-enamide], the concentration for half-maximal inhibition (IC50) was in the range of 0.01 to 1 µM.
For the compound `CC#CC(=O)N1CC[C@@H](n2cc(-c3ccc(Oc4c(F)cccc4Cl)cc3)c3c(N)n[nH]c(=O)c32)C1` [Example 94, (R)-4-amino-1-(1-(but-2-ynoyl)pyrrolidin-3-yl)-3-(4-(2-chloro-6-fluorophenoxy)phenyl)-1H-pyrrolo[2,3-d]pyridazin-7(6H)-one], the IC50 was in the range of 0.01 to 1 µM.
In the case of `CC#CC(=O)N1CC[C@@H](n2cc(-c3ccc(Oc4ccccc4F)cc3)c3c(N)n[nH]c(=O)c32)C1` [Example 95, (R)-4-amino-1-(1-(but-2-ynoyl)pyrrolidin-3-yl)-3-(4-(2-fluorophenoxy)phenyl)-1H-pyrrolo[2,3-d]pyridazin-7(6H)-one], the IC50 was in the range of 0.01 to 1 µM.
Regarding `CC#CC(=O)N1CC[C@@H](n2cc(-c3ccc(Oc4ccccc4Cl)cc3)c3c(N)n[nH]c(=O)c32)C1` [Example 96, (R)-4-amino-1-(1-(but-2-ynoyl)pyrrolidin-3-yl)-3-(4-(2-chlorophenoxy)phenyl)-1H-pyrrolo[2,3-d]pyridazin-7(6H)-one], the IC50 was 0.01 to 1 µM.
Still for that read-out and setting: to `CC#CC(=O)N1CC[C@@H](n2cc(-c3ccc(Oc4ccccc4)cc3)c3c(N)n[nH]c(=O)c32)C1` [Example 97, (R)-4-amino-1-(1-(but-2-ynoyl)pyrrolidin-3-yl)-3-(4-phenoxyphenyl)-1H-pyrrolo[2,3-d]pyridazin-7(6H)-one] belongs 0.01 to 1 µM; to `CC#CC(=O)N1C[C@H](OC)[C@@H](n2cc(-c3ccc(Oc4ccccc4F)cc3)c3c(N)n[nH]c(=O)c32)C1` [Example 98, 4-amino-1-((3S,4S)-1-(but-2-ynoyl)-4-methoxypyrrolidin-3-yl)-3-(4-(2-fluorophenoxy)phenyl)-1H-pyrrolo[2,3-d]pyridazin-7(6H)-one], 0.01 to 1 µM; to `CN(C)CC#CC(=O)N1CC[C@@H](n2cc(-c3ccc(Oc4ccccc4F)cc3)c3c(N)n[nH]c(=O)c32)C1` [Example 99, (R)-4-amino-1-(1-(4-(dimethylamino)but-2-ynoyl)pyrrolidin-3-yl)-3-(4-(2-fluorophenoxy)phenyl)-1H-pyrrolo[2,3-d]pyridazin-7(6H)-one], ≤ 0.01 µM.
Same read-out and setting: to `CC#CC(=O)NC1CCC(n2cc(-c3ccc(Oc4ccccc4F)cc3)c3c(N)n[nH]c(=O)c32)C1` (centres unmarked) [Example 100, N-(3-(4-amino-3-(4-(2-fluorophenoxy)phenyl)-7-oxo-6,7-dihydro-1H-pyrrolo[2,3-d]pyridazin-1-yl)cyclopentyl)but-2-ynamide] belongs 0.01 to 1 µM.
In the case of `CC#CC(=O)N1CC[C@H](n2cc(-c3ccc(Oc4ccccc4F)cc3)c3c(N)n[nH]c(=O)c32)C1` [Example 101, (S)-4-amino-1-(1-(but-2-ynoyl)pyrrolidin-3-yl)-3-(4-(2-fluorophenoxy)phenyl)-1H-pyrrolo[2,3-d]pyridazin-7(6H)-one], the half-maximal inhibitory concentration (IC50) fell in the range of 1 to 100 µM.
`CC#CC(=O)N[C@H]1CC[C@@H](n2cc(-c3ccc(Oc4ccccc4F)cc3)c3c(N)n[nH]c(=O)c32)CC1` [Example 102, N-((1s,4s)-4-(4-amino-3-(4-(2-fluorophenoxy)phenyl)-7-oxo-6,7-dihydro-1H-pyrrolo[2,3-d]pyridazin-1-yl)cyclohexyl)but-2-ynamide]: the IC50 fell in the range of 0.01 to 1 µM.
`C=CC(=O)N[C@H]1CC[C@@H](n2cc(-c3ccc(Oc4ccccc4F)cc3)c3c(N)n[nH]c(=O)c32)CC1` [Example 104, N-((1s,4s)-4-(4-amino-3-(4-(2-fluorophenoxy)phenyl)-7-oxo-6,7-dihydro-1H-pyrrolo[2,3-d]pyridazin-1-yl)cyclohexyl)acrylamide]: the IC50 is 0.01 to 1 µM.
For `C=CC(=O)N[C@H]1CC[C@H](n2cc(-c3ccc(Oc4ccccc4F)cc3)c3c(N)n[nH]c(=O)c32)CC1` [Example 105, N-((1r,4r)-4-(4-amino-3-(4-(2-fluorophenoxy)phenyl)-7-oxo-6,7-dihydro-1H-pyrrolo[2,3-d]pyridazin-1-yl)cyclohexyl)acrylamide], the IC50 is 0.01 to 1 µM.
Consider `C=CC(=O)N1CC[C@@H](n2cc(-c3ccc(Oc4ccccc4F)cc3)c3c(N)n[nH]c(=O)c32)C1` [Example 106, (R)-1-(1-acryloylpyrrolidin-3-yl)-4-amino-3-(4-(2-fluorophenoxy)phenyl)-1H-pyrrolo[2,3-d]pyridazin-7(6H)-one], for which the IC50 was in the range of 0.01 to 1 µM.
With `N#CN1CC[C@@H](n2cc(-c3ccc(Oc4ccccc4)cc3)c3c(N)n[nH]c(=O)c32)C1` [Example 107, (R)-3-(4-amino-7-oxo-3-(4-phenoxyphenyl)-6,7-dihydro-1H-pyrrolo[2,3-d]pyridazin-1-yl)pyrrolidine-1-carbonitrile], the half-inhibitory concentration (IC50) is ≤ 0.01 µM.
`N#CN1CCCC(n2cc(-c3ccc(Oc4ccccc4F)cc3)c3c(N)n[nH]c(=O)c32)C1` (centres unmarked) [Example 108, 3-(4-amino-3-(4-(2-fluorophenoxy)phenyl)-7-oxo-6,7-dihydro-1H-pyrrolo[2,3-d]pyridazin-1-yl)piperidine-1-carbonitrile]: the IC50 was ≤ 0.01 µM.
As to `C=CC(=O)N1CCC[C@@H](n2nc(-c3ccc(Oc4ccccc4F)cc3)c3c(N)n[nH]c(=O)c32)C1` [Example 109, (R)-1-(1-acryloylpiperidin-3-yl)-4-amino-3-(4-(2-fluorophenoxy)phenyl)-1H-pyrazolo[3,4-d]pyridazin-7(6H)-one], the IC50 fell in the range of 0.01 to 1 µM.
Take `C=CC(=O)N1CCC[C@@H](n2nc(-c3ccc(Oc4ccccc4)cc3)c3c(N)n[nH]c(=O)c32)C1` [Example 110, (R)-1-(1-acryloylpiperidin-3-yl)-4-amino-3-(4-phenoxyphenyl)-1H-pyrazolo[3,4-d]pyridazin-7(6H)-one]: the concentration for half-maximal inhibition (IC50) is 0.01 to 1 µM.
Regarding `C=CC(=O)N1CCC[C@H](n2cc(-c3ccc(Oc4c(F)cccc4F)cc3)c3c(N)n[nH]c(=O)c32)C1` [Example 114, (S)-1-(1-acryloylpiperidin-3-yl)-4-amino-3-(4-(2,6-difluorophenoxy)phenyl)-1H-pyrrolo[2,3-d]pyridazin-7(6H)-one], the IC50 lay within 0.01 to 1 µM.
With `CCC(=O)N1CCC[C@@H](n2cc(-c3ccc(Oc4c(F)cccc4F)cc3)c3c(N)n[nH]c(=O)c32)C1` [Example 115, (R)-4-amino-3-(4-(2,6-difluorophenoxy)phenyl)-1-(1-propionylpiperidin-3-yl)-1H-pyrrolo[2,3-d]pyridazin-7(6H)-one], the IC50 lay within 0.01 to 1 µM.
In the case of `C/C=C/C(=O)N1CCC[C@@H](n2cc(-c3ccc(Oc4c(F)cccc4F)cc3)c3c(N)n[nH]c(=O)c32)C1` [Example 116, 4-amino-3-[4-(2,6-difluorophenoxy)phenyl]-1-[(3R)-1-[(E)-but-2-enoyl]-3-piperidyl]-6H-pyrrolo[2,3-d]pyridazin-7-one], the IC50 fell in the range of 0.01 to 1 µM.
Same read-out and setting: to `CC#CC(=O)N1CCC[C@@H](n2cc(-c3ccc(Oc4c(F)cccc4F)cc3)c3c(N)n[nH]c(=O)c32)C1` [Example 117, (R)-4-amino-1-(1-(but-2-ynoyl)piperidin-3-yl)-3-(4-(2,6-difluorophenoxy)phenyl)-1H-pyrrolo[2,3-d]pyridazin-7(6H)-one] belongs 0.01 to 1 µM; to `CCCC(=O)N1CC[C@@H](n2cc(-c3ccc(Oc4c(F)cccc4F)cc3)c3c(N)n[nH]c(=O)c32)C1` [Example 118, (R)-4-amino-1-(1-butyrylpyrrolidin-3-yl)-3-(4-(2,6-difluorophenoxy)phenyl)-1H-pyrrolo[2,3-d]pyridazin-7(6H)-one], 1 to 100 µM.
